Laboratory results as given in patent US8716478B2, “Boron-containing small molecules” (Anacor Pharmaceuticals, Inc., priority 2010, dated 2014).
Read-outs that look alike come from different tables or passages of the source.

How the values were obtained:
[1] = system: Schistosoma mansoni schistosomula; assay: Schistosoma mansoni schistosomula phenotypic screen; settings: for phenotypes caused by positive control compounds in schistosomula: positive controls; for Schistosomula (juvenile infective form) worm screen phenotype, 24 h: Second Set, 5 uM
Source text: (§1) Puerto Rican isolates of S. mansoni using Biomphalaria glabrata snails and golden hamsters as intermediate and definitive hosts, respectively, were maintained and handled in the University of California-San Francisco Sandler Center for Tropical Medicine. Patent B. glabrata snails (6-8 weeks after exposure to 5-10 infectious miracidia) were induced to shed infective larvae (cercariae) under light stimulus into the surrounding water. Cercariae were washed in rounds of ice-cold water and concentrated through and over sieves of varying pore sizes. They were then mechanically sheared (separation of heads from tails) as described in Colley D G, et al. Exp Parasitol 1974, 35:44-51, in ice-cold Incomplete Medium 169 (as described in Basch P F. J Parasitol 1981, 67:179-185, minus FBS and antibiotics) by passing 15 times through a double headed 22-gauge syringe needle connected to two 10 mL syringes. The resulting cercarial heads (schistosomula) were separated from their tails by swirling in a petri dish. Concentrated schistosomula were added to a sterile 1.5 mL centrifuge tube and allowed to settle over ice. Schistosomula were transferred to a sterile environment and washed 4 times in Incomplete Medium 169 prior to plating.
(§2) Two sets of screening were performed. In the first set, compounds were screened against schistosomula and observations were made at 24 hours, 2 days, 3 days, 4 days, and 6 days. In the second set, compounds were screened against schistosomula with observations at 24 hours, 2 days, 3 days, and 4 days and adult worms at 7 hours, 24 hours, 4 days, and 6 days.
Plates contain 200 schistosomula/well in […] complete Basch medium and were maintained at 37° C. in a 5% CO2 atmosphere. All compounds were tested in duplicate with at least two experimental replicates. Compounds and control compounds were added to the plates using the Biomek FXp using 96-well disposable tips. Final concentration of DMSO in each well was 0.5%.
(§3) A semi-quantitative and controlled nomenclature for phenotypes that can arise as a result of compound insult to both schistosomula and adults was utilized (Abdulla M H, et al., PLoS Negl Trop Dis 2009, 3:e478). Phenotypes were recorded by visual inspection and on a flexible time basis but at least at 24 h and 4 day time-points in the case of large scale screening. […] To help eliminate bias, two screen analysts scored phenotypes ‘blind’ both to knowledge of the contents of each screening plate and the phenotypes scored by his/her colleague. Upon completing their individual assessments, each analyst's ‘hit sheet’ was then compared to derive a ‘consensus hit sheet’. Discrepancies in analysts' hit sheets were re-evaluated under the microscope to eventually make a consensus hit call.
(§4) Hyper-coiled and coiled represent a verbal description of the visual phenotype as compared to the DMSO control. The + and ++ and +++ means more of the phenotype which preceded it. The − means less of the phenotype which preceded it. Results

[2] = system: Schistosoma mansoni adult worms; assay: Schistosoma mansoni adult worm phenotypic screen; settings: for phenotypes caused by positive control compounds in adult worms: positive controls
Source text: as §1, §2
Given the delicacy and size (0.5-1.5 cm in length) of this stage all operations were performed manually by the Sandler Center. 24-well plates were set up with compound (final DMSO concentration=0.5%) containing approximately 5 pairs of worms (S. mansoni has separate sexes) in 2 mL complete Basch medium per well. Plates were maintained at 37° C. in a 5% CO2 atmosphere. All compounds were tested in duplicate with at least two experimental replicates.
as §3, §4

TNF-α = assay: In vivo TNF-α release in LPS treated mice; design: species or system Swiss Webster mice
Description: In vivo TNF-α release was measured in Swiss Webster mice, 10/group. Animals were dosed via oral gavage with drug 1% CMC suspension. Thirty minutes later LPS, 1.5 mg/kg was administered by intraperitoneal injection. Ninety minutes later animals were sacrificed, blood was collected by exsangination and serum prepared for analysis. TNF-α concentration was assessed by ELISA, non-drug treated animals had TNF-α levels 1000-3000 pg/mL. 6-(1-Hydroxy-1,3-dihydrobenzo[c][1,2]oxaborol-5-yloxy)-2-(2-isopropoxyethoxy)nicotinonitrile (D140) and 6-(1-hydroxy-1,3-dihydrobenzo[c][1,2]oxaborol-5-yloxy)-2-(4-oxopentyloxy)nicotinonitrile (D141) are disclosed in U.S. patent application Ser. No. 12/399,015, filed Mar. 5, 2009.

human PDE4 enzyme = assay: Phosphodiesterase 4 (PDE4) inhibition, semi-purified enzyme from human U937 cells; assay type: biochemical
[3] = system: TNF-α in peripheral blood mononuclear cells (PBMCs); assay: TNF-α inhibition in LPS-stimulated peripheral blood mononuclear cells; assay type: cell-based; settings: PBMC
Description: Peripheral blood mononuclear cells (PBMCs) pooled from 10-20 donors were obtained from a local blood bank, ficoll gradient purified, and stored frozen in liquid nitrogen. Cells were thawed and seeded into 96-well plates at 5×10^5 cells/well in RPMI 1640 with 10% heat-inactivated fetal calf serum (MediaTech, Inc, Hearndon, Va., USA), Test articles were evaluated at the indicated concentrations in 150 μL media containing <2% DMSO, final, with stimulant and PBMCs. Cells were stimulated with lipopolysaccharide (LPS, phenol-extract from E. coli, Sigma-Aldrich, St. Louis, Mo.) at 1 μg/mL. Stimulation was with LPS for 24 h to measure TNF-α. Cytokines in supernatants were analyzed with a FACSArray flow cytometer (BD Biosciences, San Jose, Calif., USA) using the BD Cytometric Bead Array (CBA) Flex Set (BD Biosciences). IC50 values were calculated using the four parameter logistic equation.

[4] = Pharmacokinetics and oral bioavailability after IV and PO dosing; assay type: in vivo, female CD-1 mice; settings: plasma; for bioavailability / AUC: female, CD-1, mouse; for bioavailability: po; for AUC: 10 mg/kg oral suspension dose; for clearance: mouse, 5 mg/kg, female CD-1 mice, intravenous
Description: The objective of this study was to evaluate the pharmacokinetics and oral bioavailability of PDE4 inhibitors following intravenous (IV) administration and oral (PO) doses in female CD-1 mice.
After dosing, blood samples were collected through 24 h, twice from each animal at specific times (3 mice/time point), into microcentrifuge tubes containing K2EDTA (anticoagulant), stored on wet ice and processed for plasma. The plasma samples were analyzed for concentrations of parent compound by LC/MS/MS using an internal standard/peak area method. Pharmacokinetic analysis of the mean plasma concentration-time profiles following IV and PO administration was performed.
[…] Dosing solutions for intravenous administration were prepared in 55% PEG300/25% PG/20% water. Oral dosing used a suspension prepared in 1% CMC in water with 0.1% Tween 80.
After dosing, blood samples were collected through 24 h, twice from each animal via retro-orbital bleed (˜0.1 mL, 1st time point) or cardiac puncture (˜0.6 mL, 2nd time point) at specific times (3 mice/time point), into microcentrifuge tubes containing K2EDTA (anticoagulant) and stored on wet ice prior to processing.
Plasma was prepared by centrifugation of blood samples for 6 min at approximately 2000×g or 6000 rpm at 4° C. All processed plasma samples (˜50 μL and 300 μL) were transferred to analysis tubes, placed on dry ice immediately and later stored at −80° C. until analysis for concentrations of experimental compound by LC/MS/MS.
Mouse IV clearance, Mouse Oral AUC and Oral Bioavailability are provided below. 6-(1-Hydroxy-1,3-dihydrobenzo[c][1,2]oxaborol-5-yloxy)-2-(2-isopropoxyethoxy)nicotinonitrile (D140) and 6-(1-hydroxy-1,3-dihydrobenzo[c][1,2]oxaborol-5-yloxy)-2-(4-oxopentyloxy)nicotinonitrile (D141) are disclosed in U.S. patent application Ser. No. 12/399,015, filed Mar. 5, 2009.

[5] = under similar conditions, read-out: PDE4 IC50 value
[6] = under similar conditions, read-out: TNF-α IC50 value

Compound | Adult worm screen phenotype, 7 h ([2]; 5 uM) | % Inhibition of TNFa Blood Levels in LPS Treated Mice (TNF-α; Oral Dose 3 mg/kg) [%] | % Inhibition of TNFa Blood Levels in LPS Treated Mice (TNF-α; Oral Dose 10 mg/kg) [%] | bioavailability [4] [%] | AUC [4] [ng·h/mL] | clearance [4] [mL/min/kg] | phenotypes caused by positive control compounds in schistosomula [1] | phenotypes caused by positive control compounds in adult worms [2] | further results
COc1nc(Oc2cc3c(cc2F)B(O)OC3)ccc1C#N [6-(6-Fluoro-1-hydroxy-1,3-dihydrobenzo[c][1,2]oxaborol-5-yloxy)-2-methoxynicotinonitrile] | O++ |  |  |  |  |  |  |  | schistosomula phenotype, 24 h ([1]; First Set, 24 h): O+
CC(=O)CCCOc1nc(Oc2ccc3c(c2)COB3O)ccc1C#N [Compound D141, 6-(1-hydroxy-1,3-dihydrobenzo[c][1,2]oxaborol-5-yloxy)-2-(4-oxopentyloxy)nicotinonitrile, reference compound] |  | 36.1 | 52.4 | 32 | 1300 | 43.3 |  |  | % Inhibition of TNFa Blood Levels in LPS Treated Mice (TNF-α; Oral Dose 30 mg/kg): 67.1%; IC50 (human PDE4 enzyme; [5]): 3.1 nM; IC50 [3, 6]: 1.2 nM
O=C(Nc1ccc([N+](=O)[O-])cc1Cl)c1cc(Cl)ccc1O [niclosamide, reference compound] |  |  |  |  |  |  | dose-dependent, rapid and severe phenotypes | dose-dependent, rapid and severe phenotypes | 
O=C(Nc1ccc(Oc2ccc(Cl)cc2)c(Cl)c1)c1cc(I)cc(I)c1O [rafoxanide, reference compound] |  |  |  |  |  |  | dose-dependent, rapid and severe phenotypes | dose-dependent, rapid and severe phenotypes | 
CC(C)OCCOc1nc(Oc2ccc3c(c2)COB3O)c(Cl)cc1C#N [Compound D230, 5-chloro-6-(1-hydroxy-1,3-dihydrobenzo[c][1,2]oxaborol-5-yloxy)-2-(2-isopropoxyethoxy)nicotinonitrile] |  | 80 | 77 | 60 | 3000 | 36.7 |  |  | % Inhibition of TNFa Blood Levels in LPS Treated Mice (TNF-α; Oral Dose 0.1 mg/kg): 39%; % Inhibition of TNFa Blood Levels in LPS Treated Mice (TNF-α; Oral Dose 0.3 mg/kg): 59%; % Inhibition of TNFa Blood Levels in LPS Treated Mice (TNF-α; Oral Dose 0.5 mg/kg): 55%; % Inhibition of TNFa Blood Levels in LPS Treated Mice (TNF-α; Oral Dose 1 mg/kg): 76%; % Inhibition of TNFa Blood Levels in LPS Treated Mice (TNF-α; Oral Dose 5 mg/kg): 77%; IC50 (human PDE4 enzyme; 1 μM cAMP, 20 minutes at 25° C., read-out: PDE4 IC50): 5.2 nM; IC50 ([3]; PBMCs, LPS 1 μg/mL for 24 h, read-out: Proinflammatory TNF-α IC50): 2.5 nM
O=C(C1CCCCC1)N1CC(=O)N2CCc3ccccc3C2C1 (stereo not shown) [PZQ, reference compound] |  |  |  |  |  |  | dose-dependent, rapid and severe phenotypes | dose-dependent, rapid and severe phenotypes | 
CC(C)OCCOc1nc(Oc2ccc3c(c2)COB3O)ccc1C#N [Compound D140, 6-(1-Hydroxy-1,3-dihydrobenzo[c][1,2]oxaborol-5-yloxy)-2-(2-isopropoxyethoxy)nicotinonitrile] | O++ | 59.35 | 74 | 24 | 810 | 56.7 |  |  | % Inhibition of TNFa Blood Levels in LPS Treated Mice (TNF-α; Oral Dose 0.3 mg/kg): 26.4%; % Inhibition of TNFa Blood Levels in LPS Treated Mice (TNF-α; Oral Dose 0.5 mg/kg): 30%; % Inhibition of TNFa Blood Levels in LPS Treated Mice (TNF-α; Oral Dose 1 mg/kg): 50.2%; % Inhibition of TNFa Blood Levels in LPS Treated Mice (TNF-α; Oral Dose 5 mg/kg): 72%; % Inhibition of TNFa Blood Levels in LPS Treated Mice (TNF-α; Oral Dose 30 mg/kg): 83.5%; IC50 (human PDE4 enzyme; [5]): 9 nM; IC50 [3, 6]: 3.6 nM
N#Cc1ccc(Oc2ccc3c(c2)COB3O)nc1OC1CCCC1 [2-Cyclopentyloxy-6-(1-hydroxy-1,3-dihydro-benzo[c][1,2]oxaborol-5-yloxy)-nicotinonitrile] | O+ |  |  |  |  |  |  |  | Schistosomula (juvenile infective form) worm screen phenotype, 24 h ([1]; 24 h): R, O+; Adult worm screen phenotype, 24 h ([2]; 5 uM, 24 h): O−
N#Cc1ccc(Oc2ccc3c(c2)COB3O)nc1 [6-(1-hydroxy-1,3-dihydrobenzo[c][1,2]oxaborol-5-yloxy)nicotinonitrile] | O− |  |  |  |  |  |  |  | Schistosomula (juvenile infective form) worm screen phenotype, 24 h ([1]; 24 h): R−, O,
